Marks after values point to notes of the source that are not given here.
Tests used:
[1] = parameters: method as in PMID 25398250; conditions: same LMM competitors in tenfold excess, investigated separately; cited from earlier work
[2] = target: T1, human serum albumin (HSA) (Homo sapiens, UniProt P02768); parameters: method as in PMID 25398250; conditions: cited from earlier work
T1 construct: purchased Sigma-Aldrich A8763

[3] = pM* / pM values computed at pH 7.4 from stability constants; assay type: physicochemical; conditions: for pIn (pM = –log[M(III)]): Table S1, does not account for hydrolysis of the metal ion; for pGa* (−log([M] + [M(OH)(1–4)])): pH 7.4, 1 μM Ga(III), computed from stability constants of Ref. 27 (deferiprone) or Ref. 29 (maltol, HQS, HQ); for pGa* (−log([M] + [M(OH)(1–4)])) / pIn* (−log([M] + [M(OH)(1–4)])): 10 μM ligand; for pIn* (−log([M] + [M(OH)(1–4)])): pH 7.4, 1 μM In(III)
Procedure: To compare the In(III) binding ability of the studied four ligands, pIn* (= negative decadic logarithm of the equilibrium concentration of the unbound metal species) values were calculated at pH 7.4 using the determined stability constants (Table 1).
Table S1. Calculated pM values for the studied In(III) complexes and their Ga analogues,
a Computed on the basis of stability constants taken from Ref. [27]. b Computed on the basis of stability
constants taken from Ref. [29] […]

[4] = UV-vis spectrophotometric titrations: proton dissociation constants of the ligands and overall stability constants of their In(III) complexes; assay type: physicochemical; conditions: T = 25.0 °C, I = 0.20 M (KCl); for logβ [InL2] / logβ [InL3] / logβ [InL]: In(III) complex of the ligand L; for pKa: water
Procedure: (§1) To characterize the solution stability of the In(III) complexes, pH-potentiometric and UV–vis spectrophotometric titrations were performed in water in the presence of 0.20 M chloride ions. However, stability constants for the HQ complexes could be obtained only by the latter method due to their much worse water solubility compared to the other compounds. HQS was involved as a water-soluble analogue of HQ bearing identical coordination mode. Stability constants of deferiprone were also determined by both methods in the present work to validate our experimental setup and data treatment, since the In(III) ‒ deferiprone system was already characterized by Orvig and collaborators. The hydrolysis of In(III) and its interaction with chloride ions were taken into consideration, and stability constants of the hydoxido and chlorido complexes were utilized for our calculations. As a first step, the proton dissociation constants (Ka) were determined for the ligands (Table 1) showing good agreement with the previously published data (see Table 1). The overall stability constants obtained for the octahedral In(III)-deferiprone complexes by both methods (Table 1) are fairly similar to those reported at 150 mM NaCl. […] Complexes with the same stoichiometry were also formed with the O,N-donor containing HQS (Table 1). […] Stability constants for the HQ complexes (Table 1) were determined by the deconvolution of UV–vis spectra recorded at various pH values (Fig. 1a), and the computed molar absorbance spectra for the individual ligand and complex species are shown in Fig. 1b. Due to the lack of d-d or charge transfer bands, the molar absorbance spectra of the complexes represent similar λmax values to that of the completely deprotonated form of the ligand; although, the shape of the spectra is different and is quite similar to that was found for the Ga(III) complexes.
Proton dissociation of the ligands (HQ, HQS, maltol, deferiprone) and overall stability constants and the individual spectra of their complexes were calculated with the computer program PSEQUAD [43]. The spectrophotometric titrations were performed on samples of the ligands with or without In(III); the concentration of the ligands was 0.10 mM, and the metal-to-ligand ratios were 1:1, 1:2, 1:3 and 1:4 over the pH range used in pH-potentiometric measurements at 25.0 ± 0.1 °C at an ionic strength of 0.20 M (KCl).

[5] = pH-potentiometric titrations: proton dissociation constants of the ligands and overall stability constants of their In(III) complexes; assay type: physicochemical; conditions: pH-pot, T = 25.0 °C, I = 0.20 M (KCl); for logβ [InL2] / logβ [InL3] / logβ [InL]: In(III) complex of the ligand L; for pKa: water
Procedure: as §1
The pH-potentiometric measurements for the determination of the proton dissociation constants of the ligands (HQS, maltol, deferiprone) and the overall stability constants of their In(III) complexes were carried out at 25.0 ± 0.1 °C in water at an ionic strength of 0.20 M (KCl, Sigma-Aldrich). The titrations were performed with a carbonate-free KOH solution of known concentration (0.20 M). An Orion 710A pH-meter equipped with a Metrohm combined electrode (type 6.0234.100) and a Metrohm 665 Dosimat burette were used for the pH-potentiometric measurements. […] The average water ionization constant, pKw, is 13.76 ± 0.01, which corresponds well to literature data. The reproducibility of the titration points included in the calculations was within 0.005 pH units. The pH-potentiometric titrations were performed in the pH range 2.0–11.5. The initial volume of the samples was 10.0 mL, and the ligand concentration was 3 mM and metal ion-to-ligand ratios of 1:1 to 1:4 were used. The fitting of the titration curves was less than 0.01 mL. (The fitting parameter is the average difference between the experimental and calculated titration curves expressed in the volume of the titrant.) Samples were deoxygenated by bubbling purified argon through them for ca. 10 min prior to the measurements. The proton dissociation constants of the ligands, the stoichiometry and the overall stability constants of the complexes were determined with the computer program HYPERQUAD [60]. Overall stability constants of the complexes (β(MpLqHr)) is defined for the general equilibrium pM + qL + rH ⇌ MpLqHr as β (MpLqHr) = [MpLqHr]/[M]^p[L]^q[H]^r where M denotes the metal ion and L the completely deprotonated ligand. Hydrolysis constants for In(III) and stability constants for the In(III)-chlorido complexes (Table 1) are taken from references. The calculations were always made from the experimental titration data measured in the absence of any precipitate in the solution.

apoTf = target: T2, apoTf (Homo sapiens, UniProt P02787); experiment: Interaction with (apo)Tf: ligand displacement and binding of the intact complex (UV-vis, fluorescence, ultrafiltration); conditions: UV–vis and fluorescence, pH 7.40
T2 construct: purchased Sigma-Aldrich T2036
Procedure: Therefore, UV–vis and fluorescence emission spectra of InQ3 were recorded in the presence of increasing amounts of apoTf (Fig. 5a, b). After a short initial phase, the absorbance band of InQ3 is reduced gradually by the addition of the protein, while the development of the new band at lower wavelengths (at ca. 310 nm) refers to the liberation of HQ. Namely, there is a competition for In(III) ion between the ligand and the iron-binding sites of apoTf. Absorbance values depicted at 370 nm and 310 nm (Fig. 5c) saturate roughly to the corresponding values of the free ligand and outline a sigmoidal shape. Fluorescence intensity of the same sample set (Fig. 5b, d) was enhanced and moderately blue shifted (from λmax = 540 nm to 532 nm) until the addition of ca. 0.2 equiv. apoTf. […] Then, by the addition of more apoTf, intensities decreased and λmax shifted further to shorter wavelengths (527 nm). […] Based on this and the results of apoTf quenching (vide supra) protein binding of the non-dissociated complex is presumed. This is further supported by fluorescence lifetime measurements; where new lifetime components τ3 = 4.7 ± 0.2 ns and τ4 = 13.8 ± 0.4 ns appeared for InQ3 in the presence of 0.1 – 0.3 equiv. apoTf (after 1 min waiting time). […] Here, the sigmoid shape of the UV–vis absorbance was seen again (Fig. S5) and the shifted inflection point in comparison to the titration with apoTf underlines the lower In(III) binding capacity of Tf. […]
In the case of InD3, the absorbance bands of the metal complex and apoTf overlap in great extent, however, spectra can be deconvoluted to the spectra of InD3, deferiprone and apoTf (see Fig S6 for details), and molar fractions of the respective species can be calculated (Fig. 6). Ultrafiltration experiments were carried out as well for the InD3 – apoTf system and the non-protein bound LMM fractions were analyzed by UV–vis spectrophotometry (Fig. 6). […] The complex dissociated in line with the addition of apoTf and a practically quantitative displacement of deferiprone seems to take place by the addition of ca. 0.5 equiv. apoTf. […]

apo-transferrin (apoTf) [6] = target: T3, apo-transferrin (apoTf) (Homo sapiens, UniProt P02787); conditions: in the presence of NTA; cited from earlier work
T3 construct: purchased Sigma-Aldrich T2036

apo-transferrin (apoTf) [7] = target: T3, apo-transferrin (apoTf); experiment: Kinetics of the reaction with apoTf followed by UV-vis spectrophotometry; assay type: binding; conditions: pH 7.40 (InCl3: 2 equiv.)
Procedure: Firstly, the kinetics of the reaction between apoTf and InCl3 and the complexes was studied by UV–vis spectrophotometry. The reaction of 2 equiv. […] At the same time Harris et al. have observed slow equilibration with InCl3, that was accelerated (to 6 h) in the presence of NTA [18]. In the case of InQ3 and InD3, the progress of apoTf binding could be followed through the ligand bands of the complexes. […] The Ga(III)-analogue GaQ3 interacted within 1 h with apoTf under similar conditions.
For (apo)Tf containing samples, complex concentrations were 20 μM and 0–2.5 equiv. protein was added. Reference spectra for the complexes, ligands and protein were recorded as well. Samples prepared with blood serum contained three-fold diluted serum and 10 μM metal complexes. UV–vis spectra presented in this paper for complexes InD3 or InQ3 are subtracted by the spectrum of reference protein (HSA (apo)Tf or serum) sample in all cases in favour of the better interpretation of the results.

T3 sequence (P02787 20-698): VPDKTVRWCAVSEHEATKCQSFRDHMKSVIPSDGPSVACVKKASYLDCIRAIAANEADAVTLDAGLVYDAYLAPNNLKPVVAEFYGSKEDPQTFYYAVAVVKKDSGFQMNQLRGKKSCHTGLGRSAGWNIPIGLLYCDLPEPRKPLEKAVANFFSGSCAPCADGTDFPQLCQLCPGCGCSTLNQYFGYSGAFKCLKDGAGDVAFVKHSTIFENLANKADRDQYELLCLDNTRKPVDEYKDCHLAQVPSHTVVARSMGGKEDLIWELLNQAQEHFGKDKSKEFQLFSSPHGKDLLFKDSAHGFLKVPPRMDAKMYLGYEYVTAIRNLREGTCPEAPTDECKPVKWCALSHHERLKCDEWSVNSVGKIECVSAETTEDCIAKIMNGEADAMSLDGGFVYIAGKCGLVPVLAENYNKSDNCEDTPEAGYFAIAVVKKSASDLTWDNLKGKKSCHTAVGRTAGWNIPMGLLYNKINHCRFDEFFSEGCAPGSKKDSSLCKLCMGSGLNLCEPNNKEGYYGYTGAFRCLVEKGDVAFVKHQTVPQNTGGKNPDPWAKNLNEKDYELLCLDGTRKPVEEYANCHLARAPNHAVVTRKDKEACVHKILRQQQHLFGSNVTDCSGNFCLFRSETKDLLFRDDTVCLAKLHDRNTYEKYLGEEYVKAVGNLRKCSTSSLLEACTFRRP
T1 sequence (P02768 25-609): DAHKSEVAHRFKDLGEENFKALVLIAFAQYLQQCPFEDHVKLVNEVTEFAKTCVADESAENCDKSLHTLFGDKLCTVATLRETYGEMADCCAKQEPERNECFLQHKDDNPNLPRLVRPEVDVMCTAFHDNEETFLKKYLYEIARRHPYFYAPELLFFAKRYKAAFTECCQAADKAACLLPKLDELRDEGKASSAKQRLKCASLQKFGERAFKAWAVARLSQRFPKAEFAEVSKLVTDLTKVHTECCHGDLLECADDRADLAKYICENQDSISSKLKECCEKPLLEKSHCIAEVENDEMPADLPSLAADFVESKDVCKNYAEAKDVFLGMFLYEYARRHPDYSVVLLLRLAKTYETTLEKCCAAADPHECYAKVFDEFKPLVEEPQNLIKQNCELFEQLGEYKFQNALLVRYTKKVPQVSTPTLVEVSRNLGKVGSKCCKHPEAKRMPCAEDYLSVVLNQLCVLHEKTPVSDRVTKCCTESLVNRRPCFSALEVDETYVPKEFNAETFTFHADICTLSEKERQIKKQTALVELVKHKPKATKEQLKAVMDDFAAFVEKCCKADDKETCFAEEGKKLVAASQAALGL
T2 sequence (P02787 20-698): as the sequence (P02787 20-698) above

| Structure (SMILES) | effect of LMM competitors on the complex [1] | interaction with HSA [2] | pIn (pM = –log[M(III)]) [3] | pGa* (−log([M] + [M(OH)(1–4)])) [3] | pIn* (−log([M] + [M(OH)(1–4)])) [3] | logβ [InL2] [4] | logβ [InL3] [4] | logβ [InL] [4] | pKa ([4]; read-out: pKa (HL)) | logβ [InL2] [5] | logβ [InL3] [5] | logβ [InL] [5] | pKa ([5]; read-out: pKa (HL)) | pKa ([4]; read-out: pKa (H2L)) | pKa ([5]; read-out: pKa (H2L)) | binding via intermolecular interactions to apoTf (and Tf) (apoTf) | equilibration time with Tf (apo-transferrin (apoTf) [6]) [h] | time to reach equilibrium in the reaction with apoTf (apo-transferrin (apoTf) [7]) |
| --- | --- | --- | --- | --- | --- | --- | --- | --- | --- | --- | --- | --- | --- | --- | --- | --- | --- | --- |
| Cc1occc(=O)c1[O-].Cc1occc(=O)c1[O-].Cc1occc(=O)c1[O-].[Ga+3] [GaM3, Tris(3-Hydroxy-2-methyl-4H-pyran-4-onato)gallium(III)] | practically not affected | no interaction | – | – | – | – | – | – | – | – | – | – | – | – | – | – | – | – |
| Cc1occc(=O)c1O [Maltol, 3-Hydroxy-2-methyl-4H-pyran-4-one] | – | – | 14.31 | 6.00^j | 6.01 | 18.78 ± 0.03 | 25.04 ± 0.06 | 10.77 ± 0.03 | 8.39 ± 0.02 | 18.59 ± 0.03 | 24.38 ± 0.05 | 11.03 ± 0.03 | 8.47 ± 0.01 | – | – | – | – | – |
| O=S(=O)(O)c1ccc(O)c2ncccc12 [HQS, 8-Hydroyquinoline-5-sulfonate] | – | – | 16.23 | 7.92^j | 7.93 | 21.18 ± 0.06 | 29.66 ± 0.06 | 12.29 ± 0.06 | 8.27 ± 0.04 | 21.31 ± 0.07 | 28.95 ± 0.09 | 12.64 ± 0.05 | 8.46 ± 0.02 | 3.7 ± 0.04 | 3.89 ± 0.02 | – | – | – |
| Cc1c(O)c(=O)ccn1C [Deferiprone, 3-Hydroxy-1,2-dimethylpyridin-4(1H)-one] | – | – | 16.25 | 8.83^i | 7.95 | 23.88 ± 0.06 | 33.45 ± 0.03 | 13.72 ± 0.03 | – | 23.50 ± 0.06^ h | 32.66 ± 0.08^ h | 13.67 ± 0.04^ h | 9.72 ± 0.01 | 3.57 ± 0.02 | 3.66 ± 0.01 | – | – | – |
| Oc1cccc2cccnc12 [HQ, 8-Hydroxyquinoline] | – | – | 16.48 | 7.86^j | 8.18 | 22.87 ± 0.03 | 32.64 ± 0.06 | 13.43 ± 0.06 | 9.63 ± 0.02 | – | – | – | – | 4.9 ± 0.02 | – | can be excluded | – | – |
| [Cl-].[Cl-].[Cl-].[In+3] [InCl3, reference compound] | – | – | – | – | – | – | – | – | – | – | – | – | – | – | – | – | 6 | ca. 2 h |

Reference: publication PMC8960621, “Solution speciation and human serum protein binding of indium(III) complexes of 8-hydroxyquinoline, deferiprone and maltol” (Journal of Biological Inorganic Chemistry, 2022)
